≈ marks a conversion by molar mass, not a printed value.
How the values were obtained:
[1] = system: Salmonella typhimurium, strains TA98 and TA100; assay: Ames assay (Bacterial Reverse Mutation Test); type: cell-based; conditions: TA98 and TA100, presence and absence of S-9 mix, up to 5000 μg/plate
Method: Examples 50, 52 and 54 were tested, in vitro, for their ability to induce mutations in 2 histidine dependent auxotrophic mutants of Salmonella typhimurium, strains TA98 and TA100. The mutation screen was conducted using the plate incorporation method and was performed in both the presence and absence of S-9 mix (a liver post-mitochondrial fraction derived from the livers of Aroclor 1254 treated rats). The bacteria were exposed to the test items dissolved in DMSO, which was also the negative Control. The test items were tested up to the regulatory maximum dose level. The dose levels used were 5, 15, 50, 150, 500, 1500 or 5000 μg/plate, unless the highest treatment level of the test items was limited by solubility, or toxicity against the background bacterial lawn. Dose levels were expressed in terms of the free base.
There were no increases of 2-fold or greater in revertant numbers compared with negative Control values in either strain at any dose level in the presence or absence of S-9 mix, so Examples 50, 52 and 54 were not mutagenic in the Bacterial Reverse Mutation (i.e. Ames) Test under the conditions of this screen.

[2] = system: 87 targets across GPCRs, ion channels, and enzymes; assay: Eurofins SafetyScreen panel; conditions: top concentration of 10 μM
Excerpt: Example 50 was screened against the Eurofins SafetyScreen™ panel of 87 targets across GPCRs, ion channels, and enzymes.

hERG channel = target: T1, hERG channel (Homo sapiens, UniProt Q12809); assay: hERG assay (QPatch automated patch clamp, CHO cells); type: cell-based; conditions: CHO cells expressing hERG, whole-cell patch clamp, 0.003 μM to 10 μM
T1 construct: expressed in transfected cells
Excerpt: The human ether-a-go-go related gene (hERG) potassium channel (Kv11.1) contributes to human cardiac action potential repolarisation. Inhibition of hERG channels can prolong the human cardiac action potential, resulting in QTc prolongation and potentially lethal arrhythmias (e.g. Torsade de Pointes).
Test samples were screened against the hERG channel on a QPatch 48 gigaseal automated patch clamp platform, using a Chinese Hamster Ovary (CHO) cell line stably expressing the human ether-á-go-go related gene, which encodes the hERG channel. All recordings were made in the conventional whole-cell configuration and performed at RT ([…]) using standard single hole chips (Rchip 1.5-4M0). Series resistance (4-15Mc) was compensated by >80%. Currents were elicited from a holding potential of −90 mV using the industry standard “^+40/−40” voltage protocol, which was applied at a stimulus frequency of 0.1 Hz. On achieving the whole-cell configuration, vehicle (0.1% DMSO v/v in external recording solution) was applied to each cell in two bolus additions with a 2 min recording period between each addition. Following the vehicle period, eight increasing concentrations of test sample were applied from 0.003 μM to 10 μM as a single bolus addition per test concentration, and the effects on hERG tail current amplitude measured during the 2 min recording period. Each eight-point concentration-response curve was constructed using cumulative single sample additions of each concentration to the same cell. The positive control used in this study was verapamil hydrochloride (Tocris, Cat #0654, Batch #5A/61673) and prepared to a stock concentration of 10 mM in 100% DMSO and kept as frozen aliquots.
Data analysis: All cells passing the QC parameters (i.e. >200 pA outward current, membrane resistance and rundown) are selected as ‘passed QC’ using the QPatch software, which then calculates the mean peak current for the last three sweeps at the end of each concentration application period from the cursor positions defined. Percent inhibition is calculated for each test concentration application period as the reduction in mean cursor value (peak current or charge) relative to the cursor value measured at the end of the control (i.e. vehicle) period. The percent inhibition values from each cell are used to construct concentration-response curves employing a four parametric logistic fit with 0 and 100% inhibition levels fixed at very low and very high concentrations, respectively, and a free Hill slope factor. The IC50 (50% inhibitory concentration) and Hill coefficient are then determined, but only data from cells with Hill slopes within 0.5>nH<2.0 are included. The IC50 data reported below represents the mean (and S.D.) of at least three separate cells (N≥3). […] Compounds of the invention show reduced hERG inhibitory activity compared to the reference examples.

[3] = Kinetic aqueous solubility assay; type: physicochemical; conditions: aqueous buffer, kinetic from dmso stock, 0.05M potassium phosphate buffer pH 7.4, 250 μM spike, RT
Method: Using a 10 mM stock solution of test compound in 100% DMSO, test compounds were spiked into 0.05M potassium phosphate buffer (pH 7.4) at a final concentration of 250 μM. Samples in buffer (n=2 aqueous samples, in 96-well plates) were allowed to equilibrate at RT on an orbital shaker for 30 min (300 rpm) to induce precipitation of test compounds. The appearance of each sample was determined by visual examination and noted (clear, cloudy, precipitate observed etc.). […] The concentration of compound in phosphate buffer filtrate was determined by comparing the UV absorbance peak area of each replicate against that of the calibration standards. […] Compounds of the invention have much improved solubility compared to the reference examples.

[4] = Brain to plasma (B:P) ratio in rat; type: in vivo, Sprague Dawley Rats; conditions: male, Sprague Dawley, iv, i.v. 1.5 mg/kg, 3.3% NMP in 30% HPBC in water, timepoints averaged 0.5-1 h
[5] = Brain to plasma (B:P) ratio in rat; type: in vivo, Sprague Dawley Rats; conditions: male, Sprague Dawley, po, p.o. 3.0 mg/kg
Method: Male Sprague Dawley Rats 300-350 g (Charles River, UK) were group housed, n=3, under a 12 h light/dark cycle with food and water available ad libitum. At 17:00 on the day prior to dosing all food was removed. On the day of dosing animals were weighed, tail marked and dosed via oral gavage with compound at 3 mg/kg in a volume of 5 mL/kg. Animals were culled at 30 min, 1 h and 4 h post dose via intra-peritoneal administration of pentobarbital. Post mortem blood was withdrawn via cardiac puncture, and briefly stored in K2 EDTA blood tubes on ice before being spun at 14,000 g for 4 min at 4° C. Plasma was withdrawn into a 96 well plate, placed on dry ice and stored at −80° C. Brains were quickly dissected and placed on dry ice before storage at −80° C. Bioanalysis of plasma and brain samples is performed as detailed below. Methods were prepared with guidance from industry standard documents.^i,ii […] Calibration lines are prepared in control male Sprague-Dawley Rat plasma at known concentrations in the range of 1-10000 ng/mL by spiking 2.5 μL of calibration spiking solution into 25 μL control plasma. Experimental samples are thawed to RT and 25 μL aliquots are extracted alongside the calibration lines using protein precipitation (agitation for at least 5 min at RT with 400 μL of MeCN containing 25 ng/mL tolbutamide as an internal standard). Protein precipitates are separated from the extracted test compound by centrifugation at 4000 rpm for 5 min, 4° C. […] Samples are analysed by UPLC-MS/MS on either an API6500 QTrap or Waters 30 TQS mass spectrometer using previously optimised analytical MRM (multiple reaction monitoring) methods, specific to the test compound. The concentration of test compound in isolated samples is determined following analysis of the samples against the two replicates of the calibration line, injected before and after the sample set with an appropriate regression and weighting used. Only samples within 20% of the expected test concentration are included in the calibration line and any samples that fall outside of the limits of the calibration line will be deemed to be less than or above the limit of quantification (LLoQ/ALoQ). […] Calibration lines are prepared in control male Sprague-Dawley Rat brain homogenate at known concentrations in the range of 3-30000 ng/g by spiking 2.5 μL of calibration spiking solution into 25 μL control homogenate. To prepare control and experimental brain homogenates, brains are thawed, weighed and a volume of diluent added (water) in the ratio of 2 mL per gram of brain. Homogenisation of brains is performed by bead-beater homogenisation using Precellys Evolution and CK14 7 mL small ceramic bead homogenisation tubes. Aliquots of 25 μL experimental sample are extracted alongside the calibration lines using protein precipitation (agitation for at least 5 min at RT with 400 μL of MeCN containing 25 ng/mL tolbutamide as an internal standard). Protein precipitates are separated from the extracted test compound by centrifugation at 4000 rpm for 5 min, 4° C. […] Samples are analysed by UPLC-MS/MS on either an API6500 QTrap or Waters TQS mass spectrometer using previously optimised analytical MRM (multiple reaction monitoring) methods, specific to the test compound. The concentration of test compound in isolated samples is determined following analysis of the samples against the two replicates of the calibration line, injected before and after the sample set with an appropriate regression and weighting used. Only samples within 20% of the expected test concentration are included in the calibration line and any samples that fall outside of the limits of the calibration line will be deemed to be less than or above the limit of quantification (LLoQ/ALoQ). Total brain to plasma (B:P) ratios were calculated by dividing the concentration in the brain by the concentration in plasma for each timepoint. The mean brain to plasma ratio is calculated by averaging these brain to plasma ratios across certain timepoints. […]

[6] = target: T2, Ba/F3 cells expressing BCR-ABL (Homo sapiens, UniProt P00519); assay: Ba/F3 CellTiter-Glo Assay; type: cell-based; conditions: 48 h
T2 construct: BCR (fusion partner); host or cells: Ba/F3 (IL-3 dependent murine pro-B cells); the other entry of the earlier key: BCR (P11274, Breakpoint cluster region protein)
Method: The CellTiter-Glo luminescent cell viability assay is a homogeneous method of determining the number of viable cells in culture based on quantification of the ATP present. Briefly, IL-3 dependent Ba/F3 cells are modified to express BCR-ABL. Activity of the transformed kinase overrides IL3 dependency for cellular proliferation and survival. […] Test compounds were dispensed into 384 well plates using the Tecan D300e at a top final assay concentration of 10 μM with dosing normalised to 0.1% DMSO in 50 μL volume. […] Following a 60 min incubation at RT luminescence was read on the Pherastar FS reader.

[7] = 30% HPBC in water, timepoints averaged 0.5-4 h

T1 sequence (Q12809 whole entry): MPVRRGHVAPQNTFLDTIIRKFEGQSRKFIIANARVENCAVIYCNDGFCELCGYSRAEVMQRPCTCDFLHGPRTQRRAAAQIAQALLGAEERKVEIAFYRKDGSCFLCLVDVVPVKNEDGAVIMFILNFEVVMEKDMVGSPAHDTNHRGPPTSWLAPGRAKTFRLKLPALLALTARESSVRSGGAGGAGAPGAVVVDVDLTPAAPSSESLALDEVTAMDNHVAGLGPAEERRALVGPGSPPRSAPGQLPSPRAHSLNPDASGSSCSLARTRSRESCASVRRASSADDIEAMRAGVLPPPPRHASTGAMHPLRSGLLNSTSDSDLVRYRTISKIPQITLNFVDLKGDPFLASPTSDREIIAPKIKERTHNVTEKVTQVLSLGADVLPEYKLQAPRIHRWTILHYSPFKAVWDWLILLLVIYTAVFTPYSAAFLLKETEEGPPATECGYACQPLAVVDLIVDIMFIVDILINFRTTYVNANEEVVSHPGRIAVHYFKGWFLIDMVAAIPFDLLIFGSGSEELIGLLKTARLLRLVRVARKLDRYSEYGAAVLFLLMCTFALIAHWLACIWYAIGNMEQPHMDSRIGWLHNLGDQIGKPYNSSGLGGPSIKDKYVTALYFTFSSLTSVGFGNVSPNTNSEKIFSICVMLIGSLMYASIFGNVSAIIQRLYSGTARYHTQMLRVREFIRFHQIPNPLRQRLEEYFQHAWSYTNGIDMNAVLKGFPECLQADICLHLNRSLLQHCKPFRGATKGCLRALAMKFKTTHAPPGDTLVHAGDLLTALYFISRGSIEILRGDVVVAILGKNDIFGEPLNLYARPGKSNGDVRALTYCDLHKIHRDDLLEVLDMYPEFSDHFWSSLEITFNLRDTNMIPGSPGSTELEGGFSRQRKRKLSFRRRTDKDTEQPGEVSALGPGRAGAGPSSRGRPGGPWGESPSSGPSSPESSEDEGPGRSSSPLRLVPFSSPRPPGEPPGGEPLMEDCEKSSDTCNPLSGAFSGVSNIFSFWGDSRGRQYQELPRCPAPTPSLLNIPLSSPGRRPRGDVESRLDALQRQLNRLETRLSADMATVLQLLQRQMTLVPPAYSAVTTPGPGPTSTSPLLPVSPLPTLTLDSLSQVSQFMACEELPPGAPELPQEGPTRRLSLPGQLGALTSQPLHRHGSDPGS
T2 sequence (P00519 28-1130 limits assumed): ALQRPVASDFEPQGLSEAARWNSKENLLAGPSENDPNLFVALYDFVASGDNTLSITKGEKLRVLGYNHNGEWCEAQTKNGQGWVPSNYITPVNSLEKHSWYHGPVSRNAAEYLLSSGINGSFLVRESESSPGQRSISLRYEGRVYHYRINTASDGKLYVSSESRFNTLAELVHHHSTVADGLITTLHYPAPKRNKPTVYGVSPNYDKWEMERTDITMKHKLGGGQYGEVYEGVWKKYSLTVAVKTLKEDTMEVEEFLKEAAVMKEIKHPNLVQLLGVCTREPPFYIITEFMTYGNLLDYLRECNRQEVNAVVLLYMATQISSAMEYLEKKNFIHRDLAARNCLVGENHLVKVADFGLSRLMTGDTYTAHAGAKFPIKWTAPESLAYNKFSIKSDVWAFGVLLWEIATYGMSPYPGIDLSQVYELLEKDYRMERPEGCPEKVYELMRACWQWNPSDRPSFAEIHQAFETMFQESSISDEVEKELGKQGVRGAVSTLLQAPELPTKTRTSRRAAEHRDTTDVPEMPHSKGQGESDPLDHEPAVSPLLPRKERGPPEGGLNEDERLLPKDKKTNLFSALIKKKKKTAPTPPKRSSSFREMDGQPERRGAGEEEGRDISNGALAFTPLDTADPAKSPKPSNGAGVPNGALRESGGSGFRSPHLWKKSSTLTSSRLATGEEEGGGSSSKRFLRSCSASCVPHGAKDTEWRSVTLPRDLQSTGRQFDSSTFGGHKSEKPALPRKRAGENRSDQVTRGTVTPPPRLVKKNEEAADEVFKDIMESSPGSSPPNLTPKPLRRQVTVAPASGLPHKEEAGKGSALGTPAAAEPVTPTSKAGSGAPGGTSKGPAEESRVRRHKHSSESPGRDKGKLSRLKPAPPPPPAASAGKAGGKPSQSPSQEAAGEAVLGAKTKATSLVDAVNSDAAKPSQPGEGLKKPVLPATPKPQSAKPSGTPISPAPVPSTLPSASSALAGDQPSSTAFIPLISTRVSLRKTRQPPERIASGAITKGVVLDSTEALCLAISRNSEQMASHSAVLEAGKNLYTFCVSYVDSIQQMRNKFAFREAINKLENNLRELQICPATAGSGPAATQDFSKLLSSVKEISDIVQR

Row | solubility at 30 min [3] [µM] | SMILES | IC50 (hERG channel) [µM] | further results
1 |  | O=C(Nc1ccc(OC(F)(F)F)cc1)c1ccc(=O)n(-c2cncnc2)c1 [Example 50, 6-Oxo-1-(pyrimidin-5-yl)-N-[4-(trifluoromethoxy)phenyl]-1.6-dihydropyridine-3-carboxamide] | > 10 | mutagenicity in the Bacterial Reverse Mutation (Ames) Test [1]: not mutagenic; number of 87 targets inhibited >50% [2]: 2; maximum inhibition ([2]; 87 targets): 65%
2 | 190 (≈ 74.6 µg/mL) | O=C(Nc1ccc(OC(F)(F)Cl)cc1)c1ccc(=O)n(-c2cncnc2)c1 [Example 51, N-[4-(Chlorodifluoromethoxy)phenyl]-6-oxo-1-(pyrimidin-5-yl)-1,6-dihydropyridine-3-carboxamide] | > 10 | Kp [4]: 0.67
3 | 170 (≈ 66.6 µg/mL) | O=C(Nc1ccc(OC(F)(F)Cl)cc1)c1ccc(=O)n(-c2cccnc2)c1 [Example 53, N-[4-[Chloro(difluoro)methoxy]phenyl]-6-oxo-1-(3-pyridyl)pyridine-3-carboxamide] | > 10 | Kp ([5]; 5% NMP in 30% HPBC in water, timepoints averaged 0.5-1 h): 0.82
4 | 160 (≈ 67.5 µg/mL) | COc1cncc(-n2cc(C(=O)Nc3ccc(OC(F)(F)Cl)cc3)ccc2=O)c1 [Example 61, N-[4-[Chloro(difluoro)methoxy]phenyl]-1-(5-methoxy-3-pyridyl)-6-oxo-pyridine-3-carboxamide] | > 10 | Kp [5, 7]: 0.45
5 | 120 (≈ 51.1 µg/mL) | O=C(Nc1ccc(OC(F)(F)Cl)cc1)c1ccc(=O)n(-c2cncc(Cl)c2)c1 [Example 63, N-[4-[Chloro(difluoro)methoxy]phenyl]-1-(5-chloro-3-pyridyl)-6-oxo-pyridine-3-carboxamide] | > 10 | Kp [5, 7]: 0.64
6 | 150 (≈ 61.2 µg/mL) | O=C(Nc1ccc(OC(F)(F)Cl)cc1)c1ccc(=O)n(-c2ccc[n+]([O-])c2)c1 [Example 78, 5-{[4-(Chlorodifluoromethoxy)phenyl]carbamoyl}-2-oxo-2H-[1.3′-bipyridin]-1′-ium-1′-olate] |  | IC50 [6]: 0.151 to 1 µM
7 |  | Cn1cc(-n2cc(C(=O)Nc3ccc(OC(F)(F)Cl)cc3)cc(C#N)c2=O)cn1 [Example 79, N-[4-(Chlorodifluoromethoxy)phenyl]-5-cyano-1-(1-methyl-1H-pyrazol-4-yl)-6-oxo-1.6-dihydropyridine-3-carboxamide] |  | IC50 [6]: 0.151 to 1 µM

Row | SMILES | solubility at 30 min [3] [µM] | IC50 (hERG channel) [µM] | further results
8 | Cn1cc(-n2cc(C(=O)Nc3ccc(OC(F)(F)Cl)cc3)ccc2=O)cn1 [Example 52, N-[4-[Chloro(difluoro)methoxy]phenyl]-1-(1-methylpyrazol-4-yl)-6-oxo-pyridine-3-carboxamide] | 160 (≈ 63.2 µg/mL) | > 10 | mutagenicity in the Bacterial Reverse Mutation (Ames) Test [1]: not mutagenic

From patent US20230002346A1, “NEW COMPOUNDS AND METHODS” (BenevolentAl Bio Limited, priority 2019, published 2023)
